“Also recorded” adds a separate entry of the source.
What was measured:
[1] = target: antibody D12 single-chain Fv (VH SEQ ID NO:2, VL SEQ ID NO:12; clone 1C with Ala80-Val80 in the lambda light chain); assay: Equilibrium dialysis, competition of steroids with tritium labelled estradiol for antibody D12; assay type: binding, human; conditions: for Kd: D12 13.3 nM, 4 nM tritium labelled estradiol, competing steroid 100 nM to 100 μM, competitive inhibition assumed, read-out: affinities (dissociation constants) for cross-reactive steroids
Procedure: Dissociation constants were measured by equilibrium dialysis using conditions described for testosterone and estriol (FIG. 3 and the description of FIG. 3 given below). All steroids were tested at concentrations ranging from 10 nM to their solubility limits in PBS. The dissociation constants of antibody D12 for these compounds were calculated assuming that they were competitive inhibitors of estradiol binding.
Antibody D12 (13.3 nM) was incubated with 4 nM tritium labelled estradiol, plus competing steroid (100 nM to 100 μM). Pooled data from 3 experiments. Equilibrium dialysis was carried out for 20 hr at 22° C. in phosphate buffered saline with a membrane having a 12 kDa exclusion limit.
Antibody D12 (at a concentration of 13.3 nM) was incubated for 2 h with a mixture containing both tritium labelled estradiol (4 nM) and the competing steroid (100 nM to 100 μM), before equilibrium dialysis. The binding of other steroids to D12 antibody was quantified assuming competitive inhibition of estradiol binding. Data was analyzed with proprietary software (FIG.P package: Elsevier Biosoft).

[2] = tested on: antibody D12 single-chain Fv (VH SEQ ID NO:2, VL SEQ ID NO:12); assay: ELISA, inhibition of antibody binding to BSA-estradiol by soluble steroid; design: species or system human
Procedure: An ELISA-based screening method was used to rank different clones on the basis of their relative equilibrium dissociation constants for estradiol. In this assay, crude culture supernatant was equilibrated with soluble steroids at a range of concentrations (10 μM, 1 μM, 100 nM and zero estradiol) then applied to ELISA wells coated with […]. Affinity for the soluble steroid was then indicated by a reduction in ELISA signal intensity due to the antibody being in complex with the soluble ligand and unavailable for binding to the plate. This gives a reduction in ELISA signal.
The binding properties of other steroids were investigated by measuring their ability to compete with estradiol for binding to D12 antibody. This was investigated using the ELISA based screening method (Example 2b) and any cross-reacting compounds were investigated further by equilibrium dialysis.
Culture supernatant from the antibody clone D12 was equilibrated with soluble steroid at a range of concentrations from 5 nM to 100 mM (or the limit solubility of the steroid), then transferred to an ELISA plate coated with BSA-estradiol. The ELISA plate was then processed as for a standard phage ELISA assay. Affinity for the soluble competing steroid was then indicated by a reduction in ELISA signal intensity due to the antibody being in complex with the soluble ligand and unavailable for binding to the plate.

[3] = target: antibody D12 single-chain Fv (VH SEQ ID NO:2, VL SEQ ID NO:12; clone 1C with Ala80-Val80 in the lambda light chain); assay: Equilibrium dialysis, binding of tritium labelled estradiol to antibody D12; design: species or system human; conditions: 22° C., PBS, 20 hr, read-out: dissociation constant for estradiol
Procedure: Antibody diluted 4-fold to 200-fold was incubated with 50 pM tritium labelled estradiol plus unlabelled estradiol giving total estradiol concentrations from 100 pM to 100 μM. […] Equilibrium dialysis was carried out for 20 hr at 22° C. in phosphate buffered saline with a membrane having a 12 kDa exclusion limit.
Equilibrium dialysis was carried out at 22° C. in phosphate-bufferedsaline (PBS) using a microdialyzer (Hoefer) with a membrane having a 12 kDa exclusion limit. […] Antibody diluted 4-fold to 200-fold (from 0.7 nM to 33 nM, based on concentrations calculated from binding data) was incubated with 50 pM labelled estradiol (Amersham, tritium-labelled at positions 2,4,6,7,16,17) plus unlabelled estradiol to give total estradiol concentrations from 100 pM-100 μM. Mixtures were equilibrated for 2 h at 22° C. and dialysed against PBS for 20 h with constant mixing, before taking samples from each chamber for measurement of radioactivity.
Over the range of ligand concentrations necessary for affinity measurement (up to 100 nM), less than 10% of labelled estradiol bound non-specifically. After subtraction of non-specific binding, the dissociation constant (Kd) of estradiol binding to antibody D12 was calculated from equilibrium dialysis data using a non-linear least-squaresfit, assuming a single class of binding sites.

[4] = target: mouse monoclonal antibody DB3; conditions: read-out: dissociation constant; cited from earlier work
[5] = target: progesterone-binding antibody from a non immunised murine repertoire; conditions: cited from earlier work
[6] = soluble steroid 5 nM to 100 mM (or the limit solubility of the steroid)

For `C[C@]12CC[C@@H]3c4ccc(O)cc4CC[C@H]3[C@@H]1C[C@H](O)[C@@H]2O` [16-epiestriol], the Kd [1] was 163 µM and the “inhibition of binding to BSA-estradiol in ELISA” value (shortened to “inhibition of binding”) ([2]; soluble steroid at 100 μM) was “inhibited estradiol binding; also recorded: inhibited only at very high concentrations”.
In the case of `C[C@]12CC[C@@H]3c4ccc(O)cc4CC[C@H]3[C@@H]1C[C@@H](O)[C@H]2O` [17-epiestriol], the “inhibition of binding” value ([2]; soluble steroid at 100 μM) is reported as “inhibited estradiol binding; also recorded: inhibited only at very high concentrations”.
With `C[C@]12CC[C@@H]3c4ccc(O)cc4CC[C@H]3[C@@H]1C[C@@H](O)[C@@H]2O` [Estriol, estriol] the “inhibition of binding” value ([2]; soluble steroid at 30 μM) was “did not inhibit estradiol binding”.
In the case of `C[C@]12CC[C@@H]3c4ccc(OS(=O)(=O)O)cc4CC[C@H]3[C@@H]1C[C@@H](O)[C@@H]2O` [Estriol-3-sulphate], the “inhibition of binding” value ([2]; soluble steroid at 100 μM) is reported as “inhibited estradiol binding” and the “inhibition of binding” value ([2]; soluble steroid at 100 μM, listed as Estriol-3 sulphate) is reported as “inhibited only at very high concentrations”.
In the case of `CC(C)CCC[C@@H](C)[C@H]1CC[C@H]2[C@@H]3CC=C4C[C@@H](O)CC[C@]4(C)[C@H]3CC[C@]12C` [cholesterol], the “inhibition of binding” value [2, 6] is reported as “neither cholesterol nor estriol-3-β-D-glucuronide inhibited; also recorded: did not show any inhibition”.
In the case of `C[C@]12CCC(=O)C[C@@H]1CC[C@@H]1[C@@H]2CC[C@]2(C)[C@@H](O)CC[C@@H]12` [dihydrotestosterone], the “inhibition of binding” value ([2]; soluble steroid at 30 μM) is reported as “showed inhibition” and the “inhibition of binding” value ([2]; soluble steroid at 30 μM, listed as Dihydrotestosterone) is reported as “inhibited estradiol binding”.
For `C[C@]12CC[C@@H]3c4ccc(O)cc4CC[C@H]3[C@@H]1CC[C@@H]2O` [estradiol, 1,3,5.estratriene 3,17 β-diol], the Kd [3] was 3.7 nM.
For `C[C@]12CC[C@@H]3c4ccc(O[C@@H]5O[C@H](C(=O)O)[C@@H](O)[C@H](O)[C@H]5O)cc4CC[C@H]3[C@@H]1C[C@@H](O)[C@@H]2O` [estriol-3-β-D-glucuronide], the “inhibition of binding” value [2, 6] was “neither cholesterol nor estriol-3-β-D-glucuronide inhibited” and the “inhibition of binding” value ([2]; soluble steroid 5 nM to 100 mM (or the limit solubility of the steroid), listed as Estriol-3-β-D-glucuronide) was “did not show any inhibition”.
For `CC(=O)[C@H]1CC[C@H]2[C@@H]3CCC4=CC(=O)CC[C@]4(C)[C@H]3CC[C@]12C` [progesterone], the “inhibition of binding” value ([2]; soluble steroid at 100 μM) is given as “inhibited estradiol binding; also recorded: inhibited only at very high concentrations”, the Kd [4] is given as roughly 1 nM and the dissociation constant [5] is given as “only micromolar”.
In the case of `C[C@]12CC[C@H]3[C@@H](CCC4=CC(=O)CC[C@@]43C)[C@@H]1CC[C@@H]2O` [testosterone], the “selectivity for estradiol over the steroid” value [1] is reported as “approximately 1,000 fold”, the Kd [1] is reported as 15 µM and the “inhibition of binding” value ([2]; soluble steroid at 30 μM) is reported as “inhibited estradiol binding; also recorded: showed inhibition”.
